What was measured:
[1] = test system: iPSC-derived cortical neurons; experiment: Dendritic arborization analysis (dendrite length), confocal imaging; assay type: cell-based, human
Description: FIG. 7. Analysis of dendritic arborization. Dendritic arborization was analyzed using confocal microscopy in samples treated with Bupropion. Images for dendritic arborization were acquired with a 20× objective in z-stacks and analyzed using Neurolucida software. iPSC differentiation into neurons-iPSCs were seeded at a density of 3×10^6 cells/well on a hESC-qualified Matrigel pre-coated 6-well plate and incubated at 37° C., 5% CO2 overnight. Differentiation was initiated the following day (day 0) after verifying that 100% confluency was reached. Differentiation media was added daily according to the following order: […]7 (day 15 onward) similar to a previously published protocol developed by for rapid differentiation to cortical neurons. The components of the described media, Q1-7, are provided in Appendix 1. Cells were assessed for differentiation efficiency and cell death on a daily basis. […] Neuronal and synaptic morphology was assessed using the Neurolucida software, pre- and post-synaptic marker analysis was performed using CellProfiler and total dendritic length was measured using Fiji software.

[2] = test system: iPSC-derived cortical neurons; experiment: Dendritic spine length analysis, confocal imaging; assay type: cell-based, human
Description: FIG. 8. Average dendritic spine length. Dendritic spine length was analyzed using confocal microscopy in samples treated with Bupropion. For imaging of dendritic spines, images were acquired using the Nikon Confocal A1R with a 60× objective and a 2× digital zoom in z-stacks. Analysis was performed using Neurolucida software. FIGS. 9A-9B. Average dendritic spine length in specific spine types. […] For imaging of dendritic spines, images were acquired using the Nikon Confocal A1R with a 60× objective and a 2× digital zoom in z-stacks. Analysis was performed using Neurolucida software. iPSC differentiation into neurons-iPSCs were seeded at a density of 3×10^6 cells/well on a hESC-qualified Matrigel pre-coated 6-well plate and incubated at 37° C., 5% CO2 overnight. Differentiation was initiated the following day (day 0) after verifying that 100% confluency was reached. Differentiation media was added daily according to the following order: […]7 (day 15 onward) similar to a previously published protocol developed by for rapid differentiation to cortical neurons. The components of the described media, Q1-7, are provided in Appendix 1. Cells were assessed for differentiation efficiency and cell death on a daily basis. On day 9, differentiated neurons were re-plated on either 96-well plates (destined for staining) or 12-well plates (destined for RNA extraction) that were coated with 15 μg/mL Poly-ornithine diluted in PBS (overnight incubation at 37° C.), followed by 1 μg/mL Laminin and 2 μg/mL Fibronectin diluted in PBS (overnight incubation at 37° C.): Neurons were first rinsed with pre-warmed PBS and 1 ml/well of Accutase was added for 35 minutes at 37° C., 5% CO2. DNAse1 (0.5 mg/mL) was then added for 10 additional minutes. 3 ml of pre-warmed Neurobasal media was added to each well and neurons were gently collected using a 5 ml […]. Wells were then verified for the presence of any remaining neurons. Neurons were spun down and resuspended in Q6 media. Neurons were seeded at a density of 150,000 cells/cm^2 placed back at 37° C. Following four hours of incubation, media was changed to Q6 media (150 μl per 96-well and 1 ml per 12-well). […] For dendritic arborization analysis, pre/post-synaptic markers and colocalization analysis; α-Syn, PSD95 and MAP2 primary antibodies were used. Following washes, fluorophore-coupled secondary antibodies were incubated in the blocking solution for 1 hour at room temperature. The cells were counter-stained with 4',6-diamidino-2-phenylindole (DAPI) for nuclei detection for 15 minutes at room temperature followed by washes with PBS. […] Neuronal and synaptic morphology was assessed using the Neurolucida software, pre- and post-synaptic marker analysis was performed using CellProfiler and total dendritic length was measured using Fiji software.

[3] = cells derived from non-responders

Compound: CC(NC(C)(C)C)C(=O)c1cccc(Cl)c1 (stereo not drawn) [Bupropion, 3-Chloro-N-tert-butyl-β-keto-α-methylphenethylamin]
- dendritic length, effect of treatment (significant decrease or not) [1, 3]: did not
- dendritic length, effect of treatment ([1]; neurons derived from responders): significant decrease in dendritic length
- total dendritic spine length (average), after treatment [2, 3]: no difference
- total dendritic spine length (average), after treatment ([2]; cells derived from responders): significant increase
- specific spine types (mushroom, stubby, filopodia, thin), after treatment ([2]; cells from non-responders): increase in the number of stubby spines
- specific spine types (mushroom, stubby, filopodia, thin), after treatment ([2]; responder's cells): significant increase in the number of mushroom, stubby and thin spines
